Data: patent US11154546B2, “Methods and compositions for treatment of mitochondrial toxicity” (Epirium Bio Inc., priority 2011, dated 2021)
Each block holds one compound with its values, some of them ahead of it.

Legend:
isolated mitochondria = assay: calcium induced mitochondrial damage (swelling, OD at 535 nm) in isolated heart mitochondria; format: biochemical, rat; details: 10^−14-10^−12 M; 33 μM CaCl2
Experimental: FIG. 6 depicts the protective effect of epicatechin on calcium induced mitochondrial damage (as measured by mitochondrial swelling). Swelling was evaluated by monitoring changes in optical density (OD, light absorbance) as follows: Hearts from male rats were excised and weighed. Left ventricles were homogenized (0.1 g/mL) in solution A (Sucrose 2M, EDTA 0.01M, Hepes 0.5M: pH=7.4), centrifuged 10 min (800×g), 4° C., the supernatant was centrifuged 10 min (8000×g), 4° C. and the pellet was re-suspended in solution B (Sucrose 2M, EDTA 0.01M, Tris 0.5M-H2PO4-50 mM: pH=7.4) and centrifuged 10 min (10000×g), 4° C. […] Pellet was re-suspended in 10 mL of solution C (Sucrose 2M, EDTA 0.01M, Tris 0.5M, H2PO4 50 mM, Succinate 1M: pH=7.4).

[1] = tested on: mitochondrial permeability transition pores; details: cited from earlier work
[2] = tested on: mitochondrial oxidative phosphorylation (OXPHOS) related complexes; assay: Western blot of OXPHOS complexes in skeletal muscle of prednisolone-treated rats; format: in vivo; details: prednisolone 10 mg/kg/day SC, 10 days, rat quadriceps
Experimental: FIG. 3 depicts the effects of the administration of 10 consecutive days of prednisolone (10 mg/kg/day, SC) on rat skeletal muscle mitochondrial oxidative phosphorylation (OXPHOS) related complexes levels as assessed by Western blots. Three groups of male rats were analyzed: 1) control group (saline solution, SC and saline solution by gavage BID); 2) prednisolone (10 mg/kg/day, SC and saline solution by gavage BID); and 3) prednisolone (10 mg/kg/day, SC) plus epicatechin (Epi; 1 mg/kg/day by gavage BID). Western blots of isolated skeletal muscle (quadriceps) from each group were probed with a cocktail of monoclonal antibodies to electron transport chain proteins (OXPHOS) (20 KDa subunit of complex I, 26 KDa subunit of complex IV, subunit core 2 of complex III, 30 KDa complex II and ATP synthase 54 Kda complex V). […]
Western blots were performed as follows: Approximately 50 mg of the heart and quadriceps femoris muscles were homogenized with a polytron in 500 μl lysis buffer (1% triton X-100, 20 mM Tris, 140 mM NaCl, 2 mM EDTA, and 0.1% SDS) with protease and phosphatase inhibitor cocktails (P2714 and P2850, Sigma-Aldrich, St. Louis, Mo.) supplemented with 0.15 mM PMSF, 5 mM Na3VO4 and 3 mM NaF. […] The total protein content was measured in the supernatant using the Bradford method. […] The band intensities were digitally quantified using ImageJ software.

[3] = fasting glucose levels in prednisolone-treated rats; format: in vivo, rat; details: prednisolone 10 mg/kg/day SC, 10 days
Experimental: Three groups of male rats were analyzed: 1) control group (saline solution, SC and saline solution by gavage BID); 2) prednisolone (10 mg/kg/day, SC and saline solution by gavage BID) and; 3) prednisolone (10 mg/kg/day, SC) plus epicatechin (Epi; 1 mg/kg/day by gavage BID). Blood samples were obtained from animals on each group after 12 hours fasting, Glucose levels were determined spectrophotometrically with an autokit glucose (Wako) kit.

[4] = oral glucose tolerance test in prednisolone-treated rats; format: in vivo, rat; details: prednisolone 10 mg/kg/day SC, 10 days; oral glucose 1.25 g/Kg, 0-4 hours
Experimental: Blood samples were obtained from animals on each group from 0-4 hours after an oral glucose charge (1.25 g/Kg). Glucose levels were determined spectrophotometrically with an autokit glucose (Wako) kit.

[5] = tested on: differentiated human skeletal muscle cells; assay: mitochondrial respiration (oxygen consumption rate, Seahorse apparatus) in differentiated human skeletal muscle cells; format: cell-based; details: cells treated with 30 nM epicatechin for 48 h
Experimental: FIG. 1 depicts epicatechin stimulation on-demand mitochondrial respiration in human cells. […] Rates of respiration are reported as oxygen consumption rates (OCR) and were measured using a Seahorse apparatus.
FIG. 2 depicts blockade of epicatechin's stimulatory effect by an inhibitor of pyruvate transport.

Structure (SMILES): O=C(NCCO[N+](=O)[O-])c1cccnc1 [Nicorandil, N-[2-(Nitroxy)ethyl]-3-pyridinecarboxamide]
calcium induced mitochondrial swelling (isolated mitochondria): blocks in a dose dependent manner
mitochondrial pore formation in response to ischemia [1]: prevent mitochondrial pore formation

skeletal muscle mitochondrial complex (I-V) levels [2]: reduced
glucose levels after 12 hours fasting [3]: significant hyperglycemia
Structure (SMILES): C[C@]12C=CC(=O)C=C1CC[C@@H]1[C@@H]2[C@@H](O)C[C@@]2(C)[C@H]1CC[C@]2(O)C(=O)CO [prednisolone]
oral glucose tolerance [4]: Abnormal glucose tolerance

Structure (SMILES): N#CC(=Cc1ccccc1)C(=O)O [a-cyannocinnamate]
blockade of epicatechin-stimulated maximal rates of respiration [5]: blocked

Structure (SMILES): OCC1OC(O)CC(O)C1O (stereo not shown) [deoxyglucose]
blockade of epicatechin-stimulated maximal rates of respiration [5]: not by deoxyglucose
